Values joined by “and” are separate entries in the source; they are usually repeats but may differ in a detail not shown here. Equal values may be shown once.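 These data come from cells grown in 96-well plates and exposed to compound for 48 hours at five concentrations. Abbreviation: GI50, concentration required for 50% inhibition of growth. TGI is the concentration that stops growth completely.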 A value given as a limit tells only on which side of the number the result lay.

Among the data in PubChem BioAssay (NCI) are TGI and GI50 values, retold here.

Among the test systems are MCF7 breast; HT29 colon; SK-OV-3 ovarian; 786-0 renal; COLO 205 colon; SK-MEL-5 melanoma; LOX IMVI melanoma; HOP-92 NSCLC.
Common to all, as to experiment: NCI anticancer screen, dose series, 48 h

In the case of `COc1ccc(S(=O)(=O)O)cc1-n1nc(C(=O)Nc2ccccc2)n[n+]1-c1cc(S(=O)(=O)[O-])ccc1OC`, the TGI in the assay with MCF7 breast, with HT29 colon, with SK-OV-3 ovarian, in the assay on 786-0 renal, in the assay on COLO 205 colon and in the assay on SK-MEL-5 melanoma was above 100 µM throughout.
Regarding `CC(C)CCC[C@@H](C)[C@H]1CCC2C3CC=C4C[C@@H](Oc5c6ccccc6nc6ccccc56)CCC4C3CCC21` (stereo partly drawn), the TGI with HT29 colon, in the assay on SK-OV-3 ovarian, with LOX IMVI melanoma, with 786-0 renal, in the assay on HOP-92 NSCLC and with COLO 205 colon was above 50 µM each time. The molecule also gave a TGI with SK-MEL-5 melanoma above 50 µM.
For `CCOC(=O)Oc1cc2c(c(OC)c1OC)-c1ccc(SC)c(=O)cc1C(NC(=O)C(F)(F)F)CC2` (stereo not drawn), the TGI in the assay on MCF7 breast is 19.5 µM; in the assay with 786-0 renal, 13 µM; in the assay with HOP-92 NSCLC it was 0.306 µM; in the assay with COLO 205 colon, 0.523 µM and 1.03 µM; in the assay with SK-MEL-5 melanoma, 0.00191 µM. Further, in the assay on COLO 205 colon, the GI50 was 0.0447 µM.
As to `COc1ccccc1C1SCC(=O)N1c1ccc(-c2ccc(-n3c(-c4ccccc4)nc4ccccc4c3=O)cc2)cc1` (stereo not drawn), the TGI in the assay on MCF7 breast, with HT29 colon, in the assay on SK-OV-3 ovarian, with LOX IMVI melanoma, in the assay on 786-0 renal and with COLO 205 colon was above 100 µM throughout. The molecule further came in with a TGI in the assay with SK-MEL-5 melanoma above 100 µM.
Consider `COc1ccc(O[C@H](COCc2ccccc2)C[C@@H]2COC(C)(C)O2)cc1`, for which the TGI with MCF7 breast, with HT29 colon, with SK-OV-3 ovarian, with LOX IMVI melanoma, in the assay on 786-0 renal and in the assay with COLO 205 colon was above 100 µM each time. Further, the TGI with SK-MEL-5 melanoma is above 100 µM.
Turning to `NC(=O)c1nnc2cc(F)ccc2c1N`, the TGI in the assay on MCF7 breast, in the assay on HT29 colon, with SK-OV-3 ovarian, in the assay on LOX IMVI melanoma, with 786-0 renal and with COLO 205 colon was above 100 µM each time. Further, the TGI with SK-MEL-5 melanoma is above 100 µM.
Regarding `O=c1/c(=C\c2ccccc2)sc2n1C(c1ccccc1)C1(O)CCCCC1N=2` (stereo not drawn), the TGI with MCF7 breast, in the assay on HT29 colon, with LOX IMVI melanoma, in the assay on 786-0 renal and with SK-MEL-5 melanoma was above 100 µM in each case.
As to `COC(=O)c1ccccc1C#CC#Cc1ccccc1C(=O)OC`, the TGI was above 10 µM in the assay on MCF7 breast; above 10 µM in the assay on HT29 colon; above 10 µM in the assay with SK-OV-3 ovarian; above 10 µM in the assay with LOX IMVI melanoma; above 10 µM with 786-0 renal; 3.28 µM in the assay on COLO 205 colon. In the assay with SK-MEL-5 melanoma, this molecule came in with a TGI above 10 µM.
As to `O=C(/C=C/c1cccc(Br)c1)c1cccs1`, the TGI in the assay on MCF7 breast was 33 µM; with HT29 colon, 25.3 µM; in the assay with SK-OV-3 ovarian, 46.8 µM; with 786-0 renal, 31.4 µM; in the assay with COLO 205 colon, 46 µM; in the assay on SK-MEL-5 melanoma, 30.7 µM.
For the molecule `COc1ccc2cc1Oc1ccc(cc1)C(Sc1ccccc1)CCOC(=O)CC2` (stereo not drawn), the TGI in the assay on MCF7 breast, in the assay on HT29 colon, with SK-OV-3 ovarian, with LOX IMVI melanoma, with 786-0 renal and in the assay on COLO 205 colon was above 100 µM throughout. Moreover, the TGI with SK-MEL-5 melanoma was above 100 µM.
As to `CN(C(=O)Cc1ccc(Cl)c(Cl)c1)[C@H]1CCCC[C@@H]1[N+]1(C)CCCC1`, the TGI in the assay with MCF7 breast, in the assay on HT29 colon, in the assay on SK-OV-3 ovarian, in the assay on LOX IMVI melanoma, with 786-0 renal and in the assay on COLO 205 colon was above 100 µM each time. The molecule also gave a TGI in the assay with SK-MEL-5 melanoma above 100 µM.
As to `COc1ccc(N2C(=Nc3ccccc3)SC(=N/S(=O)(=O)c3ccccc3)/C2=N\S(=O)(=O)c2ccccc2)cc1`, the TGI worked out at 40.8 µM with MCF7 breast; 48 µM in the assay with HT29 colon; 64.8 µM in the assay on 786-0 renal; 42 µM in the assay on HOP-92 NSCLC; 41 µM in the assay with COLO 205 colon; 31.9 µM with SK-MEL-5 melanoma.
`CN1C(=S)C(c2ccccc2)Sc2ccccc21` (stereo not drawn): the TGI in the assay with MCF7 breast, in the assay with SK-OV-3 ovarian, in the assay on LOX IMVI melanoma, in the assay with 786-0 renal, in the assay with COLO 205 colon and in the assay with SK-MEL-5 melanoma was above 100 µM each time.
For `Cn1c(C(C#N)c2nc(Cl)ncc2Br)nc2ccccc21` (stereo not drawn), the TGI in the assay with HT29 colon, in the assay on SK-OV-3 ovarian, in the assay with LOX IMVI melanoma, in the assay with 786-0 renal, in the assay on HOP-92 NSCLC and with COLO 205 colon was above 100 µM in each case. The molecule also came in with a TGI in the assay with SK-MEL-5 melanoma above 100 µM.
Turning to `C=CCOCn1cnc2c(N)ncnc21`, the TGI with MCF7 breast, in the assay on HT29 colon, in the assay with SK-OV-3 ovarian, in the assay on LOX IMVI melanoma, with 786-0 renal and in the assay with COLO 205 colon was above 100 µM each time. The same molecule returned a TGI in the assay with SK-MEL-5 melanoma above 100 µM.
